Numbering of substitutions follows the chain as printed. Entries after “also recorded” stand apart in the source; their conditions may differ.
B1: sim3: SUMOylation-deficient mutant of NPR1 (protein)
chain: MDTTIDGFADSYEISSTSFVATDNTDSSIVYLAAEQVLTGPDVSALQLLSNSFESVFDSPDDFYSDAKLVLSDGREVSFHRCVLSARSSFFKSALAAAKKEKDSNNTAAVKLELKEIAKDYEVGFDSVVTVLAYVYSSRVRPPPKGVSECADENCCHVACRPAVDFMLEVLYLAFIFKIPELITLYQRHLLDVVDKVVIEDTLVILKLANICGKACMKLLDRCKEIIVKSNVDMVSLEKSLPEELVKEIIDRRKELGLEVPKVKKHVSNVHKALDSDDIELVKLLLKEDHTNLDDACALHFAVAYCNVKTATDLLKLDLADVNHRNPRGYTVLHVAAMRKEPQLAASALEKGASASEATLEGRTALMIAKQATMAVECNNIPEQCKHSLKGRLCVEILEQEDKREQIPRDVPPSFAVAADELKMTLLDLENRVALAQRLFPTEAQAAMEIAEMKGTCEFIVTSLEPDRLTGTKRTSPGVKIAPFRILEEHQSRLKALSKTVELGKRFFPRCSAVLDQIMNCEDLTQLACGEDDTAEKRLQKKQRYMEIQETLKKAFSEDNLELGNSSLTDSTSSTSKSTGGKRSNRKLSHRRR
modifications: left off: small tags and cut ends
notes: SUMOylation-deficient mutant of NPR1
B2: S55/59D: phosphomimic mutant of NPR1 at S55/59 (protein)
chain: B1 chain with S55D, S59D, A345I, A346L, A348L
modifications: left off: small tags and cut ends

System: cytoplasmic condensates (SINCs)
Test: Confocal imaging of localization and condensate (body) formation of GFP-fused NPR proteins and variants
Format: cell-based, Nicotiana benthamiana
Settings: for SA-induced cytoplasmic body/condensate (SINC) formation: 5 mM SA for 2 hr
Outline: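 GFP fusions transiently expressed in N. benthamiana by Agrobacterium infiltration (OD600 1). For NPR1-GFP, 4-day Arabidopsis seedlings were vacuum-infiltrated and, at 48 hpi, soaked 2 h in water or SA. Airyscan confocal, 40× water objective, GFP ex 488 nm/em 505-530 nm; condensate number, size and intensity scored by automated thresholding.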

[1] = 5 mM SA, single-cell imaging for 2 hr starting 40 min after induction

Molecule | SA-induced cytoplasmic body/condensate (SINC) formation | number of bodies, time-lapse [1] | total fluorescence from each body, time-lapse [1] | condensate formation at lower SA concentration (1 mM SA for 5 hr)
NPR1: wild-type Arabidopsis thaliana NPR1 protein, positive regulator of systemic acquired resistance | significant SA-inducible cytoplasmic body formation | started to decrease after 50 min | gradual increase in the signal intensity over time | 
B1 |  |  |  | could form condensates at a lower concentration of SA
B2 | inability to form SINCs; also recorded: fail to form cytoplasmic condensates |  |  | 
